From patent US20130252930A1 (BIOMARIN PHARMACEUTICAL INC., priority 2010, published 2013)
Like-named read-outs stand apart in the source and are kept apart here.

Legend:
[1] = target: T1, CYP17 (human testicular microsome) (Homo sapiens, UniProt P05093); test: CYP17 enzymatic assay (% inhibition at 10 nM), version 1 (Biological Example 5); format: biochemical; details: 10 nM compound, DHEA by ELISA, read-out: Biological Example No. 5: CYP17 percent inhibition at 10 nM (version 1)
T1 construct: using microsomal fraction from human testis (Celsis Cat #S00110) as the enzyme source; tissue Celsis S00110; host or cells: human testis microsomal fraction
T1 sequence (P05093 1-508): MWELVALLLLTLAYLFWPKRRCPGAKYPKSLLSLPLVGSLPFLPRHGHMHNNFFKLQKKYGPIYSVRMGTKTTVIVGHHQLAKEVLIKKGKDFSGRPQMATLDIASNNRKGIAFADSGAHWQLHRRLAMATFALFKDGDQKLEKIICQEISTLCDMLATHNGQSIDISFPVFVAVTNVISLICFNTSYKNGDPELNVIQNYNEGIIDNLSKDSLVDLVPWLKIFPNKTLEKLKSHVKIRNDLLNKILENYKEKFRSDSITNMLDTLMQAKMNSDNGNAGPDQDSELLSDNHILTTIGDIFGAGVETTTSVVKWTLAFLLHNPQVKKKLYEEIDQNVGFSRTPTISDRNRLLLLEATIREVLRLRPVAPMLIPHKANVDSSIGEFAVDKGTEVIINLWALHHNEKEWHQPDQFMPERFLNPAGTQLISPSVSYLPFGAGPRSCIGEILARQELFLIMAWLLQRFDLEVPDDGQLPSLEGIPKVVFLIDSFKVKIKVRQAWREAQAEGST

[2] = target: T2, Cyp21 enzyme (Human HEK 293-Cyp21 stable transfected cells) (Homo sapiens, UniProt P08686); test: CYP21-HEK293 enzymatic assay (% inhibition at 100 nM) (Biological Example 10); format: cell-based; details: HEK 293-Cyp21 cells
T2 construct: expressed in transfected cells
T2 sequence (P08686 1-495): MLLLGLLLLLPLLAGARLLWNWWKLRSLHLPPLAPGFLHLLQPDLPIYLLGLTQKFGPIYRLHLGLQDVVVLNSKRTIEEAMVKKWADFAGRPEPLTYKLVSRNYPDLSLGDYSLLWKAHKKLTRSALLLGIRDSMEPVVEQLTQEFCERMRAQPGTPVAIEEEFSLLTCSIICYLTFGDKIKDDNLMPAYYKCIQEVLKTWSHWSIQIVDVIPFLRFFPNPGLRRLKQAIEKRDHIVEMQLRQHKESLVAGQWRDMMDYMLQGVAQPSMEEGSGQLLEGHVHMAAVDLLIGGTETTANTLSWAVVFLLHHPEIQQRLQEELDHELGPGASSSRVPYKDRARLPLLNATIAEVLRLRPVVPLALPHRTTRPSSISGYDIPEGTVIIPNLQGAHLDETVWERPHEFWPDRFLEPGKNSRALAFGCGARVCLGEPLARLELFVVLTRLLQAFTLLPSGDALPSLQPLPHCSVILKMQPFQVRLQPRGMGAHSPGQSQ
Outline: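 Percent inhibition at 100 nM: DOC in conditioned medium was read by ELISA at 450 nm and quantified from a standard curve. Stably transfected human Cyp21 HEK293 cells were pretreated 5 h with compound or 1% methanol mock, then given 10 μM final progesterone for 20 h at 37 °C.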

[3] = Rat liver microsome stability assay (Biological Example 8a); details: liver microsomes, pH 7.4
[4] = Human liver microsome stability assay (Biological Example 8b); details: liver microsomes, pH 7.4
Procedure: The reaction was started with addition of excess NADPH (5 mg/mL, 15 μL in 0.1 M potassium phosphate buffer, 1.0 mM EDTA, pH 7.4), the total volume is 45 μL (compound final concentration was 1 μM). […] 50 μL of the supernatant was transferred from each well into a 96-well sample plate containing 50 μL of ultra-pure water (Millipore) for LC-MS/MS analysis.

[5] = target: T1, CYP17 (human testicular microsome); test: CYP17 enzymatic assay (% inhibition at 1 nM) (Biological Example 12); format: biochemical; details: compound at 1 nM, read-out: CYP17 enzymatic assay % inhibition at 1 nM (Biological Example No. 12)
Procedure: The assays were performed in 96-well plates. Typical assays were carried out in total 100 μL volume that included test compounds at 1 nM concentration, 1× reaction buffer, 0.5 mM NADPH, 1 μM 17α-hydroxypregnenolone, and 2.5 μL of human testicular microsome (Celsis. Cat #S00110). Reaction without test compound served as a positive control. Reactions were allowed to incubate at 37° C. for 90 min with gentle shaking. The reaction was stopped by directly applying the enzymatic reaction mixture to ELISA plate for evaluation of DHEA concentration according to manufacturer's protocol (IBL America). A standard curve (OD450 vs. DHEA concentration) was generated using purified DHEA. […] Percent inhibition (inhibition %) of the compound was calculated using normalized DHEA concentration based on following formula: 100−([DHEA] of compound/[DHEA] of positive control*100).

[6] = 100 nM compound, read-out: Biological Example No. 10: CYP21-HEK293 percent inhibition at 100 nM

Compound | inhibition at 0.01 µM [1] [%] | inhibition at 0.1 µM [2, 6] [%] | half-life at 1 μM [3] [min] | half-life at 1 μM [4] [min] | inhibition at 0.1 µM ([2]; compound at 100 nM, read-out: CYP21-HEK293 enzymatic assay % inhibition at 100 nM (Biological Example No. 10)) [%] | inhibition at 0.001 µM [5] [%]
C[C@]12CC(O)C[C@@H]1CC[C@@H]1[C@@H]2CC[C@]2(C)C(n3ccnc3)=CC[C@@H]12 (stereo partly drawn) [Compound 109, (3aS,5aS)-6-(1H-imidazol-1-yl)-3a,5a-dimethyl-1,2,3,3a,3b,4,5,5a,8,8a,8b,9,10,10a-tetradecahydrodicyclopenta[a,f]naphthalen-2-ol] | > 80 | ≥ 30 | 10 to 60 | – | – | –
C[C@]12CC[C@H]3[C@@H](CC=C4C[C@@H](O)CC[C@@]43C)C1=CC=C2c1cccnc1 [Compound 79, (3S,10R,13S)-10,13-dimethyl-17-(pyridin-3-yl)-2,3,4,7,8,9,10,11,12,13-decahydro-1H-cyclopenta[a]phenanthren-3-ol] | 50 to 80 | < 30 | 10 to 60 | 1 to 50 | – | –
CC(=O)NC1CC[C@@]2(C)C(=CCC3C2CC[C@]2(C)C(n4ccnc4)=CCC32)C1 (stereo partly drawn) [Compound 237, N-((10R,13S)-17-(1H-imidazol-1-yl)-10,13-dimethyl-2,3,4,7,8,9,10,11,12,13,14,15-dodecahydro-1H-cyclopenta[a]phenanthren-3-yl)acetamide] | – | – | – | > 50 | < 30 | > 50
